Experiments:
UO-31 = experiment: NCI anticancer screen, UO-31; assay type: cell-based, human; conditions: Homo sapiens; UO-31, Renal, 48 h
A549/ATCC = experiment: NCI anticancer screen, A549/ATCC; assay type: cell-based, human; conditions: Homo sapiens, Non-Small Cell Lung, 48 h
NCI-H23 = experiment: NCI anticancer screen, NCI-H23; assay type: cell-based, human; conditions: Homo sapiens; NCI-H23, Non-Small Cell Lung, 48 h
OVCAR-8 = experiment: NCI anticancer screen, OVCAR-8; assay type: cell-based, human; conditions: Homo sapiens; OVCAR-8, Ovarian, 48 h
[1] = tested on: 60 different human cancer cell lines; experiment: NCI in vitro anticancer screen (whole panel); assay type: cell-based; conditions: NCI screen, 48 h
T-47D = experiment: NCI anticancer screen, T-47D; assay type: cell-based, human; conditions: Homo sapiens, T47D, Breast, 48 h
M14 = experiment: NCI anticancer screen, M14; assay type: cell-based, human; conditions: Homo sapiens; M14, Melanoma, 48 h
MOLT-4 = experiment: NCI anticancer screen, MOLT-4; assay type: cell-based, human; conditions: Homo sapiens; MOLT-4, Leukemia, 48 h
PC-3 = experiment: NCI anticancer screen, PC-3; assay type: cell-based, human; conditions: Homo sapiens; PC-3, Prostate, 48 h
UACC-62 = experiment: NCI anticancer screen, UACC-62; assay type: cell-based, human; conditions: Homo sapiens; UACC-62, Melanoma, 48 h
SN12C = experiment: NCI anticancer screen, SN12C; assay type: cell-based, human; conditions: Homo sapiens, 48 h, Renal
COLO 205 = experiment: NCI anticancer screen, COLO 205; assay type: cell-based, human; conditions: Homo sapiens; COLO 205, Colon, 48 h
DU-145 = experiment: NCI anticancer screen, DU-145; assay type: cell-based, human; conditions: Homo sapiens; DU-145, Prostate, 48 h
ACHN = experiment: NCI anticancer screen, ACHN; assay type: cell-based, human; conditions: Homo sapiens, Renal, 48 h
OVCAR-3 = experiment: NCI anticancer screen, OVCAR-3; assay type: cell-based, human; conditions: Homo sapiens; OVCAR-3, Ovarian, 48 h
HCT-15 = experiment: NCI anticancer screen, HCT-15; assay type: cell-based, human; conditions: Homo sapiens; HCT-15, Colon, 48 h
NCI-H522 = experiment: NCI anticancer screen, NCI-H522; assay type: cell-based, human; conditions: Homo sapiens; NCI-H522, Non-Small Cell Lung, 48 h
A498 = experiment: NCI anticancer screen, A498; assay type: cell-based, human; conditions: Homo sapiens; A498, Renal, 48 h
SK-MEL-28 = experiment: NCI anticancer screen, SK-MEL-28; assay type: cell-based, human; conditions: Homo sapiens; SK-MEL-28, Melanoma, 48 h
MDA-MB-231/ATCC = experiment: NCI anticancer screen, MDA-MB-231/ATCC; assay type: cell-based, human; conditions: Homo sapiens, Breast, 48 h
IGR-OV1 = experiment: NCI anticancer screen, IGR-OV1; assay type: cell-based, human; conditions: Homo sapiens, IGROV-1; IGR-OV1, Ovarian, 48 h
OVCAR-4 = experiment: NCI anticancer screen, OVCAR-4; assay type: cell-based, human; conditions: Homo sapiens; OVCAR-4, Ovarian, 48 h
NCI-H322M = experiment: NCI anticancer screen, NCI-H322M; assay type: cell-based, human; conditions: Homo sapiens, Non-Small Cell Lung, 48 h
SK-MEL-2 = experiment: NCI anticancer screen, SK-MEL-2; assay type: cell-based, human; conditions: Homo sapiens; SK-MEL-2, Melanoma, 48 h
LOX IMVI = experiment: NCI anticancer screen, LOX IMVI; assay type: cell-based, human; conditions: Homo sapiens, Melanoma, 48 h
HT29 = experiment: NCI anticancer screen, HT29; assay type: cell-based, human; conditions: Homo sapiens, HT-29; HT29, Colon, 48 h
RXF 393 = experiment: NCI anticancer screen, RXF 393; assay type: cell-based, human; conditions: Homo sapiens; RXF 393, Renal, 48 h
SF-539 = experiment: NCI anticancer screen, SF-539; assay type: cell-based, human; conditions: Homo sapiens; SF-539, CNS, 48 h
HOP-92 = experiment: NCI anticancer screen, HOP-92; assay type: cell-based, human; conditions: Homo sapiens; HOP-92, Non-Small Cell Lung, 48 h
K-562 = experiment: NCI anticancer screen, K-562; assay type: cell-based, human; conditions: Homo sapiens, K562; K-562, Leukemia, 48 h
SK-OV-3 = experiment: NCI anticancer screen, SK-OV-3; assay type: cell-based, human; conditions: Homo sapiens; SK-OV-3, Ovarian, 48 h
786-0 = experiment: NCI anticancer screen, 786-0; assay type: cell-based, human; conditions: Homo sapiens; 786-0, Renal, 48 h
UACC-257 = experiment: NCI anticancer screen, UACC-257; assay type: cell-based, human; conditions: Homo sapiens; UACC-257, Melanoma, 48 h
MDA-MB-435 = experiment: NCI anticancer screen, MDA-MB-435; assay type: cell-based, human; conditions: Homo sapiens; MDA-MB-435, Breast, 48 h

| SMILES | GI50 (UO-31) | GI50 (A549/ATCC) | GI50 (NCI-H23) | GI50 (OVCAR-8) | growth and proliferation of human primary cancer cell-lines (in words) [1] | GI50 (T-47D) | GI50 (M14) | GI50 (MOLT-4) | GI50 (PC-3) | GI50 (UACC-62) | GI50 (SN12C) | GI50 (COLO 205) | GI50 (DU-145) | GI50 (ACHN) | GI50 (OVCAR-3) | GI50 (HCT-15) | GI50 (NCI-H522) | GI50 (A498) | GI50 (SK-MEL-28) | GI50 (MDA-MB-231/ATCC) | other results |
| --- | --- | --- | --- | --- | --- | --- | --- | --- | --- | --- | --- | --- | --- | --- | --- | --- | --- | --- | --- | --- | --- |
| COc1cc(CNc2ccc(C(=O)OC(C)(C)C)cc2)cc(CN2CCN(c3ccccn3)CC2)c1O [Compound Q012145T] | 67.2 µM | 84.3 µM | 51.6 µM | > 100 µM | inhibited growth and proliferation | 13.1 µM | 83.3 µM | 13 µM | 23.5 µM | 74.5 µM | > 100 µM | 24.8 µM | > 100 µM | > 100 µM | 37.5 µM | 46.4 µM | 52.9 µM | 16.2 µM | > 100 µM | > 100 µM | GI50 (IGR-OV1): > 100 µM; GI50 (OVCAR-4): 46.9 µM; GI50 (NCI-H322M): > 100 µM; GI50 (SK-MEL-2): > 100 µM; GI50 (LOX IMVI): 60.4 µM; GI50 (HT29): 12.7 µM; GI50 (RXF 393): 80.3 µM; GI50 (SF-539): > 100 µM; GI50 (HOP-92): 6.57 µM; GI50 (K-562): 10.2 µM; GI50 (SK-OV-3): > 100 µM; GI50 (786-0): 48.6 µM; GI50 (UACC-257): 33 µM; GI50 (MDA-MB-435): 60.1 µM |
| CCOC(=O)[C@H](Cc1ccccc1)NCc1cc(CN2CCN(c3ccccn3)CC2)c(O)c(OC)c1 [Compound Q012147T] | 94.1 µM | > 100 µM | 55.9 µM | > 100 µM | inhibited growth and proliferation | 33.5 µM | 99 µM | 3.13 µM | 49.8 µM | > 100 µM | > 100 µM | > 100 µM | > 100 µM | 78.2 µM | 86.2 µM | 98.3 µM | 76.3 µM | > 100 µM | > 100 µM | > 100 µM | GI50 (IGR-OV1): > 100 µM; GI50 (OVCAR-4): 70.2 µM; GI50 (NCI-H322M): 49.4 µM; GI50 (SK-MEL-2): > 100 µM; GI50 (LOX IMVI): > 100 µM; GI50 (HT29): 43.2 µM; GI50 (RXF 393): 76.5 µM; GI50 (SF-539): 73.4 µM; GI50 (HOP-92): 24.8 µM; GI50 (K-562): 49.3 µM; GI50 (SK-OV-3): > 100 µM; GI50 (786-0): 60.2 µM; GI50 (UACC-257): 67.3 µM; GI50 (MDA-MB-435): 83.2 µM |

From patent publication US20080280920A1, “Plasminogen Activator Inhibitor-1 Inhibitors” (priority 2005, published 2008)
